Where “and” joins values, the source holds several entries; their conditions need not be identical. Equal values may be shown once.
Tests used:
C. albicans ISS 1 = test: Experimental subcutaneous infection with Candida albicans in mice; format: in vivo, Candida albicans in mice (male CD1 outbred); details: individual samples 1-4; 50 mcg s.c. at 0, 48 and 96 hours (150 total mcg per animal)
Method: Male CD1 outbred mice (IFFA Credo) aged 8 weeks were used (4 animals per group).
A pathogenic strain of Candida was used, namely C. albicans ISS 1.
The infected animals were treated with ST 722 dissolved in saline, and Miconazole diluted in saline from a stock solution containing 1% Dimethyl Formamide.
From an overnight broth culture of C. albicans in Sabouraud broth, a fungal suspension was prepared in sterile saline containing 5.0×10^5 cells/mi. An inoculum of 0.5 ml of this suspension was injected subcutaneously into the abdominal wall of each animal.
The compounds were then administered by subcutaneous injection in the same area of the fungal challenge at the dose of 50 mcg (in 0.2 ml of saline) immediately after the inoculum and following 48 and 96 hours (150 total mcg per animal).
Then, 48 hours following the last treatment (6 days after the challenge with Candida), the animals were sacrificed, and the abdominal wall as well as the peritoneum were dissected out.
The excised tissues were then homogenized in 5 ml of sterile saline with a Potter-Elvehjem tissue grinder. The resulting suspensions, appropriately diluted, where plated onto Petri dishes containing a selective agar medium (BIGGY agar), which allows to easily detect the yeast Colony Forming Units (CFU/ml).
The number of colonies scored in a series of dilutions for each single sample consents to calculate the number of yeast cells present in the infected tissue sample as follows: [formula] Where Zi is the number of dilutions performed, Ni is the number of plates prepared for each dilution, and Ci is the total number of yeast cells scored in each dilution.

Candida albicans (562) = test: MIC for yeast and yeast-like strains; format: cell-based; details: 48 hours, 35° C., read-out: Minimal Inhibitory Concentration (MIC)
Method: (§1) The following strains were used (the number of strains is in brackets): Candida (13); Criptococcus (2); Saccharormyces (1); Torulopsis (1).
(§2) Yeast Nitrogen Base supplemented with 0.15% asparagine and 1.0% glucose (as carbon source) was the medium utilized in the assays.
(§3) This medium was buffered with 0.165 M 2-(N-morpholino) propane sulfonic acid (MOPS), a non-chelating buffer. […]
(§4) The inoculum was prepared from an overnight broth culture (a 48-hour culture only for Cryptococcus) in Sabouraud broth and appropriately diluted to yield a final suspension containing approximately 5.0×10^6 Colony Forming Units per ml (CFU/ml), when compared to the Mc Farland's standard control (BRAY W. E., Clinical Laboratory Methods, 5th Ed. C. V. MOSBY, St. Louis, Mo, 1957).
(§5) After further diluting (1:50), a […] volume of such fungal suspensions and an equal volume of the substance solutions were distributed into each well of a microtiter plate (96 wells, round bottom). Such a procedure eventually allowed for an "in vitro" antimycotic activity assay utilizing final fungal inocula of approximately 5.0×10^4 CFU/ml.

Candida albicans (A 54) = test: MIC for yeast and yeast-like strains; format: cell-based; details: 48 hours, 35° C., read-out: Minimal Inhibitory Concentration (MIC)
Method: as §1, §2, §3, §4, §5

Candida krusei (ISS 1) = test: MIC for yeast and yeast-like strains; format: cell-based; details: Pichia kudriavzevii; 48 hours, 35° C.; read-out: Minimal Inhibitory Concentration (MIC)
Method: as §1, §2, §3, §4, §5

[1] = tested on: Candida tropicalis (5705); test: MIC for yeast and yeast-like strains; format: cell-based; details: 48 hours, 35° C., read-out: Minimal Inhibitory Concentration (MIC)
Method: as §1, §2, §3, §4, §5

[2] = tested on: Cryptococcus neoformans (4711); test: MIC for yeast and yeast-like strains; format: cell-based; details: 48 hours, 35° C., read-out: Minimal Inhibitory Concentration (MIC)
Method: as §1, §2, §3, §4, §5

[3] = tested on: Saccharomyces cerevisiae (ATCC 7752); test: MIC for yeast and yeast-like strains; format: cell-based; details: ATCC7752, 48 hours, 35° C., read-out: Minimal Inhibitory Concentration (MIC)
Method: as §1, §2, §3, §4, §5

[4] = tested on: Torulopsis candida (D.S.); test: MIC for yeast and yeast-like strains; format: cell-based; details: Suzukiozyma candida; 48 hours, 35° C.; read-out: Minimal Inhibitory Concentration (MIC)
Method: as §1, §2, §3, §4, §5

Candida albicans (PG) = test: MIC and MFC for yeast and yeast-like strains; format: cell-based; details: 48 hours, 35° C., read-out: Minimal Inhibitory Concentration (MIC)
Method: as §1, §2
(§6) This medium was buffered with 0.165 M 2-(N-morpholino) propane sulfonic acid (MOPS), a non-chelating buffer.
(§7) Antimicrob. Agents Cheroother. Aug. 34.8:1542-1545).
as §4, §5
(§8) The minimal fungicidal concentration was evaluated by spot-transferring onto Petri dishes, containing Sabouraud agar, 0.01-ml volumes of all the samples showing no visible fungal growth.

[5] = tested on: Candida albicans (ATCC 2091); test: MIC for yeast and yeast-like strains; format: cell-based; details: ATCC2091, 48 hours, 35° C., read-out: Minimal Inhibitory Concentration (MIC)
Method: as §1, §2, §6, §7, §4, §5

Candida albicans (ISS 1) = test: MIC for yeast and yeast-like strains; format: cell-based; details: 48 hours, 35° C., read-out: Minimal Inhibitory Concentration (MIC)
Method: as §1, §2, §6, §7, §4, §5

Candida glabrata (ISS 1) = test: MIC for yeast and yeast-like strains; format: cell-based; details: Nakaseomyces glabratus; 48 hours, 35° C.; read-out: Minimal Inhibitory Concentration (MIC)
Method: as §1, §2, §6, §7, §4, §5

[6] = tested on: Candida guilliermondii (ISS 1); test: MIC for yeast and yeast-like strains; format: cell-based; details: Meyerozyma guilliermondii; 48 hours, 35° C.; read-out: Minimal Inhibitory Concentration (MIC)
Method: as §1, §2, §6, §7, §4, §5

[7] = tested on: Candida parapsilosis (ISS 1); test: MIC for yeast and yeast-like strains; format: cell-based; details: Lodderomyces parapsilosis; 48 hours, 35° C.; read-out: Minimal Inhibitory Concentration (MIC)
Method: as §1, §2, §6, §7, §4, §5

[8] = tested on: Candida pseudotropicalis (EC 1); test: MIC for yeast and yeast-like strains; format: cell-based; details: Kluyveromyces marxianus; 48 hours, 35° C.; read-out: Minimal Inhibitory Concentration (MIC)
Method: as §1, §2, §6, §7, §4, §5

[9] = tested on: Candida tropicalis (ISS 1); test: MIC for yeast and yeast-like strains; format: cell-based; details: 48 hours, 35° C., read-out: Minimal Inhibitory Concentration (MIC)
Method: as §1, §2, §6, §7, §4, §5

[10] = tested on: Cryptococcus neoformans (ISS 1); test: MIC for yeast and yeast-like strains; format: cell-based; details: 48 hours, 35° C., read-out: Minimal Inhibitory Concentration (MIC)
Method: as §1, §2, §6, §7, §4, §5

yeast-like fungi = test: MIC / MFC for yeast-like fungi, all strains; format: cell-based, Candida, Cryptococcus, Saccharomyces, Torulopsis; details: versus susceptible strains; read-out: Mean MIC values
Method: as §1, §2, §3, §4, §5, §8

[11] = tested on: Aspergillus fumigatus (1/A); test: MIC for filamentous fungi; format: cell-based; details: read-out: Minimal Inhibitory Concentration (MIC)
Excerpt: (§9) The following strains were used (the number of strains is in brackets): Aspergillus (5); Fusarium (1); Mucor (1); Penicillium (1).
(§10) The tested substances were: ST 712, ST 722, ST 982, ST 983, ST 1000, ST 1001, ST 1032, ST 1033, ST 1034, ST 1036, ST 1037, ST 1038, ST 1050, ST 1051, ST 1052, ST 1053. The assay medium was the same as the one used in the previous study. The conidia from 72-hour cultures in Sabouraud agar, collected by washing with Sabouraud medium and Tween 80 (one drop of Tween per 10 ml of medium), were utilized as inoculum (5.0×10^4 CFU/ml).
(§11) The assay was performed using the same procedure as described for yeast-like fungi.
(§12) Also the evaluation of MIC and MFC was as reported previously.

[12] = tested on: Aspergillus fumigatus (2/A); test: MIC for filamentous fungi; format: cell-based; details: read-out: Minimal Inhibitory Concentration (MIC)
Excerpt: as §9, §10, §11, §12

[13] = tested on: Aspergillus fumigatus (ATCC 28212); test: MIC for filamentous fungi; format: cell-based; details: ATCC28212, read-out: Minimal Inhibitory Concentration (MIC)
Excerpt: as §9, §10, §11, §12

[14] = tested on: Aspergillus fumigatus (C/1); test: MIC for filamentous fungi; format: cell-based; details: read-out: Minimal Inhibitory Concentration (MIC)
Excerpt: as §9, §10, §11, §12

[15] = tested on: Aspergillus niger (ATCC 16404); test: MIC for filamentous fungi; format: cell-based; details: ATCC16404, read-out: Minimal Inhibitory Concentration (MIC)
Excerpt: as §9, §10, §11, §12

Fusarium sp. (ISS 1) = test: MIC for filamentous fungi; format: cell-based; details: read-out: Minimal Inhibitory Concentration (MIC)
Excerpt: as §9, §10, §11, §12

Mucor mucedo (ATCC 7941) = test: MIC for filamentous fungi; format: cell-based; details: ATCC7941, read-out: Minimal Inhibitory Concentration (MIC)
Excerpt: as §9, §10, §11, §12

Penicillium sp. (1302) = test: MIC for filamentous fungi; format: cell-based; details: read-out: Minimal Inhibitory Concentration (MIC)
Excerpt: as §9, §10, §11, §12

filamentous fungi = test: MIC / MFC for filamentous fungi, all strains; format: cell-based, Aspergillus, Fusarium, Mucor, Penicillium; details: versus susceptible strains; read-out: Mean MIC values
Excerpt: as §9, §10, §11, §12

[16] = tested on: Epidermophyton floccosum (IHEM 3495); test: MIC for dermatophytic fungi; format: cell-based; details: 35° C., 96 hours, read-out: Minimal Inhibitory Concentration (MIC)
Method: (§13) The following strains were used: Trichophyton menthagrophytes ATCC 9533, Trichophyton rubrum IHEM 4274, Microsporum canis IHEM 3522, Epydermophyton floccosum IHEM 3495. The tested substances were: ST 722, ST 1033, ST 1037, ST 1050, ST 1051, ST 1052,. ST 1053.
(§14) The assay was performed following the same procedure described for the yeasts, by using 7-day fungi cultures grown at 30° C. in Potato Dextrose agar, and harvested with Sabouraud broth and Tween 80 (0.5%).
(§15) After washing with Yeast Nitrogen Base, supplemented with asparagine and glucose (as carbon source), the fungal suspension was fragmented using a tissue grinder until the largest clumps or aggregates were undetectable within the grinder. This fungal suspension was then appropriately diluted in YNB to yield a concentration of 2.0×10^5 infective particles/ml (small mycelium fragments, micro-and macroaleuriospores).
(§16) Volumes of 100 μl both of the fungal suspensions and substance solutions, two-fold serially diluted in assay medium, were distributed into each well of a microtiter plate (96 wells, round bottom), which was incubated at 35° C. for 96 hours.

[17] = tested on: Microsporum canis (IHEM 3522); test: MIC for dermatophytic fungi; format: cell-based; details: 35° C., 96 hours, read-out: Minimal Inhibitory Concentration (MIC)
Method: as §13, §14, §15, §16

[18] = tested on: Trichophyton menthagrophites (ATCC 9533); test: MIC for dermatophytic fungi; format: cell-based; details: ATCC9533, 35° C., 96 hours, read-out: Minimal Inhibitory Concentration (MIC)
Method: as §13, §14, §15, §16

[19] = tested on: Trichophyton rubrum (IHEM 4274); test: MIC for dermatophytic fungi; format: cell-based; details: 35° C., 96 hours, read-out: Minimal Inhibitory Concentration (MIC)
Method: as §13, §14, §15, §16

dermatophytic fungi = test: MIC / MFC for dermatophytic fungi, all strains; format: cell-based, Trichophyton, Microsporum, Epidermophyton; details: versus susceptible strains
Method: as §13, §14, §15, §16

## Clc1ccc(COC(Cn2ccnc2)c2ccc(Cl)cc2Cl)c(Cl)c1 (centres unmarked) [Miconazole, reference compound]
C. albicans ISS 1
  CFU/mouse: sterile and 3.60 × 10^1 CFU/mouse and 8.10 × 10^1 CFU/mouse

## CCCCCCCCCCCCCOC(=O)C[C@H](C[N+](C)(C)C)OC(=O)CC(C)C [ST 1033]
Candida albicans (562)
  MIC: 1.56 µg/mL
Candida albicans (A 54)
  MIC: 1.56 µg/mL
Candida krusei (ISS 1)
  MIC: 3.12 µg/mL
[1]
  MIC: 3.12 µg/mL
[2]
  MIC: 0.78 µg/mL
[3]
  MIC: 3.12 µg/mL
[4]
  MIC: 3.12 µg/mL
Candida albicans (PG)
  MIC: 3.12 µg/mL
[5]
  MIC: 3.12 µg/mL
Candida albicans (ISS 1)
  MIC: 1.56 µg/mL
Candida glabrata (ISS 1)
  MIC: 3.12 µg/mL
[6]
  MIC: 6.25 µg/mL
[7]
  MIC: 3.12 µg/mL
[8]
  MIC: 3.12 µg/mL
[9]
  MIC: 3.12 µg/mL
[10]
  MIC: 1.56 µg/mL
yeast-like fungi
  MIC: 2.7 µg/mL
[11]
  MIC: 3.12 µg/mL
[12]
  MIC: 3.12 µg/mL
[13]
  MIC: 3.12 µg/mL
[14]
  MIC: 3.12 µg/mL
[15]
  MIC: 6.25 µg/mL
Fusarium sp. (ISS 1)
  MIC: 3.12 µg/mL
Mucor mucedo (ATCC 7941)
  MIC: 6.25 µg/mL
Penicillium sp. (1302)
  MIC: 3.12 µg/mL
Filamentous fungi
  MIC: 3.9 µg/mL
[16]
  MIC: 25 µg/mL
[17]
  MIC: 6.25 µg/mL
[18]
  MIC: 12.5 µg/mL
[19]
  MIC: 6.25 µg/mL
Dermatophytic fungi
  MIC: 12.5 µg/mL

From patent publication US5525627A, “Esters of acyl carnitines with long-chain aliphatic alcohols and pharmaceutical compositions containing same having antimycotic activity” (Sigma-Tau Industrie Farmaceutiche Riunite S.p.A., priority 1992, dated 1996)
